Where two headings read alike, the source gives them in different places.
Key:
Bcl-w = biological target: T1, Bcl-w (Homo sapiens, UniProt Q92843); assay: biochemical; set-up: AlphaLISA competitive displacement of biotin-tagged BAD or BIM peptide from His-tagged Bcl-2 family protein
T1 construct: gene BCL2L2; Purified recombinant His-tagged Bcl-w
T1 sequence (Q92843 2-193): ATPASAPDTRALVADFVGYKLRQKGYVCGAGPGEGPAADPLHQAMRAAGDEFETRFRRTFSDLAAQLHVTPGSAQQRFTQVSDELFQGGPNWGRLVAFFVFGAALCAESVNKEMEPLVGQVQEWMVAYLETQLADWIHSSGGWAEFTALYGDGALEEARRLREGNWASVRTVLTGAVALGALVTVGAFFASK
Method: Purified recombinant His-tagged Bcl-xl, His-tagged Bcl-2 and His-tagged Bcl-w (Cat. No. SRP0187 for Bcl-xl, Cat. No. SRP0186 for Bcl-2 and Cat. No. B1059 for Bcl-w, Sigma-Aldrich) were incubated with increasing concentrations of compounds and a fixed concentration of biotin-tagged BAD (Cat No. SQ-ASPE-66592-1, AnaSpec, Fremont, CA) (for Bcl-xl) or BIM (Cat. No. SQ-ASPE-66592-2, AnaSpec) (for Bcl-2 and Bcl-w) peptides to a final volume of 40 µL in 96-well PCR plates. After 24 h incubation, 5 µL 6X His-Acceptor beads (final concentration 20 µg/mL) (Cat. No. AL128M, Perkin-Elmer, Waltham, MA, USA) were added to each well and incubated for 1 h. Thereafter, 5 µL streptavidin-donor beads were added (final concentration of 20 µg/mL) (Cat. No. 6760002, Perkin-Elmer) to each well and incubated for 30 min. At the end of the incubation period, 17 µL of each sample was transferred into adjacent wells of 384-well proxy plate (Cat. No. 6008280, Perkin-Elmer). The plate was scanned using Alpha program on a Biotek’s Synergy Neo2 multi-mode plate reader (Winooski, VT, USA). Gen5 version 3.04 software (BioTek, USA) was used for the AlphaLISA signal measurements. The inhibition constant (Ki) was calculated using non-linear regression, one site, competitive binding, fit Ki function on GraphPad Prism 7 software based on experimentally determined Kd for each protein/peptide pair.

cereblon (CRBN) = cereblon (CRBN) (Homo sapiens, UniProt Q96SW2); assay: CRBN-dependent Bcl-xl degradation in WI38 cells: CRBN knockout, pomalidomide competition, N-methyl negative control; format: cell-based
Bcl-xl = biological target: T2, Bcl-xl (Homo sapiens, UniProt Q07817); assay: AlphaLISA/AlphaScreen competitive binding with biotin-tagged BAD peptide
T2 construct: gene BCL2L1; Purified recombinant His-tagged Bcl-xl

Bcl-2 = biological target: T3, Bcl-2 (Homo sapiens, UniProt P10415); set-up: AlphaLISA competitive displacement of biotin-tagged BAD or BIM peptide from His-tagged Bcl-2 family protein; conditions: inhibitor
T3 construct: gene BCL2; Purified recombinant His-tagged Bcl-2

| Ki (Bcl-w) | Ki (Bcl-xl) | Ki (Bcl-2) | Ki (Bcl-w; inhibitor) | SMILES | CRBN-dependent Bcl-xl degradation in WI38 cells: CRBN knockout, pomalidomide com (cereblon (CRBN)) |
| --- | --- | --- | --- | --- | --- |
| 8.5 nM | – | – | – | CC1(C)CCC(c2ccc(Cl)cc2)=C(CN2CCN(c3ccc(C(=O)NS(=O)(=O)c4ccc(N[C@H](CCN5CCOCC5)CSc5ccccc5)c(S(=O)(=O)C(F)(F)F)c4)cc3)CC2)C1 [ABT263] | – |
| – | 1.9 nM | 3.52 nM | > 1000 nM | CC1(C)CCC(c2ccc(Cl)cc2)=C(CN2CCN(c3ccc(C(=O)NS(=O)(=O)c4ccc(N[C@H](CCN5CCN(C(=O)CCCn6cc(COCCOCCNc7cccc8c7C(=O)N(C7CCC(=O)NC7=O)C8=O)nn6)CC5)CSc5ccccc5)c(S(=O)(=O)C(F)(F)F)c4)cc3)CC2)C1 (some centres unmarked) [PZ, PZ15227] | PZ had no effect on the levels of Bcl-xl in CRBN knockout cells (Fig. 2e) |

— publication PMC7181703, “Using proteolysis-targeting chimera technology to reduce navitoclax platelet toxicity and improve its senolytic activity” (Nature Communications, 2020)
